pIC50: −log10 of the molar value.
Assays:
[1] = molecular target: Platelet-derived growth factor receptor (Homo sapiens, UniProt P09619+P16234); assay: Inhibition of PDGF-beta receptor binding to p85 SH2-domain; assay type: protein-complex assay
[2] = Inhibition of CD19 phosphopeptide binding to p85 N-terminal SH2 domain at 20 uM.
[3] = Inhibition of CD19 phosphopeptide binding to p85 N-terminal SH2 domain at 50 uM.

In the case of `CCCCN(CCCC)C(=O)[C@H](C)NC(=O)[C@@H](NC(=O)[C@H](Cc1ccc(OP(=O)(O)O)cc1)NC(C)=O)C(C)C`, the pIC50 [1] was 7.11 and the inhibition [2] was 98%.
For `CCCCN(CCCC)C(=O)[C@H](C)NC(=O)[C@@H](NC(=O)[C@H](Cc1ccn(CP(=O)(O)O)c(=O)c1)NC(C)=O)C(C)C`, the inhibition [3] was 50%.

From ChEMBL document CHEMBL1130614, “Design and synthesis of a pyridone-based phosphotyrosine mimetic” (Bioorg Med Chem Lett, 1998)
